# Biological target: T1, S. aureus TrmD (Staphylococcus aureus, UniProt Q2FZ43)
# T1 construct: made in house; host or cells: E. coli BL21
# T1 sequence (Q2FZ43 1-245): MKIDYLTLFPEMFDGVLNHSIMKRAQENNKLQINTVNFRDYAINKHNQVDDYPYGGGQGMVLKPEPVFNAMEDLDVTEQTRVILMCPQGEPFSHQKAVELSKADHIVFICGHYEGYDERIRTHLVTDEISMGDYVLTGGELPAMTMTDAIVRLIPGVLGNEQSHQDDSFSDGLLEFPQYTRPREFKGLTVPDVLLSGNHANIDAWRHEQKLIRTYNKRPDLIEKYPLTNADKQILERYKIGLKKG
# Assay: nanoSAR direct-to-biology FP displacement screening of crude triazoles
# Format: binding
# Settings: crude triazole at 1 μM, assuming full conversion; 500 nM TrmD, 10 nM tracer 4; read-out: % displaced tracer
# Description: Next, we conducted an S. aureus TrmD-targeting nanoSAR study. For this, alkyne 7 was reacted on a 96 nmol scale with an in-house diversity-oriented azide library (N = 320, mean pairwise Tanimoto similarity = 0.11) designed to cover a large chemical fragment space, generating a panel of 320 crude triazoles ready for FP assay investigation. The composition of the azide library is designed to be chemically diverse in several categories, including physicochemical properties such as polar surface area, lipophilicity, and the number of hydrogen bond donors and acceptors, as well as structural features like the number of aromatic rings (Figure S23). A complete list of chemical structures included in the azide library can be found in Table S4. In situ reaction conditions for CuAAC were adapted from Gehrtz et al., utilizing CuSO4, which is reduced in situ to Cu(I) by sodium ascorbate and stabilized by TBTA. Degassed water and DMSO (1:1) were used as solvents to prevent the oxidation from Cu(I) to Cu(II). For the synthesis of the triazole library, a master mix was prepared, containing all reaction components except the azides. All reactions were started by the addition of the respective azide in 24 μL at a final product concentration of 4 mM (96 nmol). Reaction mixtures were incubated for 16 h at room temperature and under an argon atmosphere in sealed 96-well plates.
# For FP assay screening, we used 500 nM of S. aureus TrmD and 10 nM of tracer 4 in a total volume of 40 μL in 96-well plates. We performed control measurements and defined 10 nM of tracer 4 in buffer as 100% displacement and the DMSO control as 0% tracer displacement. […] The results of the FP screening were visualized in a waterfall plot and plate-based heatmaps (Figure , Figure S3).
# Fluorescence polarization (FP) assays were performed as follows. The assays for H. influenzae TrmD have been described previously. All assays were conducted in technical triplicate using black 96-well half area plates. For the FP assays, a tracer (20 nM Cy5TPD for E. coli and H. influenzae TrmD, 10 nM tracer 4 for S. aureus TrmD) was mixed with the respective enzyme (2 μM E. coli TrmD, 2 μM H. influenzae TrmD, 500 nM S. aureus TrmD) in buffer (E. coli and H. influenzae TrmD: 50 mM HEPES, 500 mM NaCl, 5% Glycerol, pH 7.5, S. aureus TrmD: 40 mM Tris HCl, 100 mM NaCl, 10 mM MgCl2, 5% Glycerol, pH 7.5). The compounds were added in varying concentrations for K D-value determination. […] The Z-factor for tracer 4 was determined by measuring 48 replicates of the free tracer (positive controls, PC) and 48 replicates of a mixture of enzyme and tracer (negative controls, NC). The Z-factor is defined in terms of the means (μ) and standard deviations (σ) of the positive and negative controls and calculated as Z = 1–(3*(σnc + σpc)/(μnc–μpc)). […] Polarization values (mP) were determined from polarization-specific parallel and orthogonal fluorescence intensities. K D-values were calculated in GraphPad Prism 8.0.1 using the four-parameter Hill equation: y(% tracer bound) = bottom + ([ligand]-slope) × (top–bottom)/([ligand]-slope + K Dslope).
# A commercial azide diversity library (Enamine) containing 320 azides at a concentration of 100 mM in DMSO in a 96-well tube rack was employed for this nanoSAR study. For the reaction of the azides with alkyne 7 via CuAAC, a master mix was prepared. […] The solvents were degassed with argon to avoid oxidation of the copper(I) during the reaction. To each well of a 96-well PCR plate (Applied Biosystems MicroAmp) were added 23 μL of the master mix and 1 μL of the 100 mM azide stock. The final concentrations in the Mastermix were: 8.7 mM sodium ascorbate (8.3 mM in reaction well), 1.1 mM TBTA (1.0 mM in reaction well), 4.3 mM 7 (4.1 mM in reaction well), 1.3 mM CuSO4×5 H2O (1.2 mM in reaction well).
row,Compound,inhibition at 1 µM
1,"N#Cc1cc(Cl)ccc1-n1cc(-c2c[nH]c3nc[nH]c(=O)c23)nn1 [Compound 02H02, Clc1cc(C#N)c(N2N=NC(C=3C=4C(=O)NC=NC4NC3)=C2)cc1]",0%
2,"O=c1[nH]cnc2[nH]cc(-c3cn([C@H]4CCCNCC4)nn3)c12 [Compound 03A12, O=C1NC=NC=2NC=C(C=3N=NN(C3)[C@@H]4CC[NH2+]CCC4)C12]",18%
3,"Nc1ccc(Cl)c(-n2cc(-c3c[nH]c4nc[nH]c(=O)c34)nn2)c1 [Compound 02E08, Clc1c(N2N=NC(C=3C=4C(=O)NC=NC4NC3)=C2)cc(N)cc1]",13%
4,"Cn1nncc1-n1cc(-c2c[nH]c3nc[nH]c(=O)c23)nn1 [Compound 04B02, O=C1NC=NC=2NC=C(C=3N=NN(C=4N(N=NC4)C)C3)C12]",63%
5,"CC(C)CCn1cc(-c2c[nH]c3nc[nH]c(=O)c23)nn1 [Compound 01A09, O=C1NC=NC=2NC=C(C=3N=NN(C3)CCC(C)C)C12]",26%
6,"CCc1nc(C)c(Cn2cc(-c3c[nH]c4nc[nH]c(=O)c34)nn2)o1 [Compound 01G02, O=C1NC=NC=2NC=C(C=3N=NN(C3)CC=4OC(=NC4C)CC)C12]",71%
7,"CC(C)(C)OC(=O)N1CCC[C@H](CCn2cc(-c3c[nH]c4nc[nH]c(=O)c34)nn2)CC1 [Compound 03F11, O=C(OC(C)(C)C)N1CC[C@@H](CCN2N=NC(C=3C=4C(=O)NC=NC4NC3)=C2)CCC1]",71%
8,"C[C@@H](C(=O)N1CCCC1)n1cc(-c2c[nH]c3nc[nH]c(=O)c23)nn1 [Compound 02E11, O=C1NC=NC=2NC=C(C=3N=NN(C3)[C@H](C(=O)N4CCCC4)C)C12]",20%
9,"O=c1[nH]cnc2[nH]cc(-c3cn(Cc4ccc(F)cc4F)nn3)c12 [Compound 02H03, Fc1c(ccc(F)c1)CN2N=NC(C=3C=4C(=O)NC=NC4NC3)=C2]",49%
10,"O=c1[nH]cnc2[nH]cc(-c3cn(C[C@@H]4CNCCO4)nn3)c12 [Compound 02D04, O=C1NC=NC=2NC=C(C=3N=NN(C3)C[C@H]4OCC[NH2+]C4)C12]",24%
11,"CN(C)c1cccc(OCCCn2cc(-c3c[nH]c4nc[nH]c(=O)c34)nn2)c1 [Compound 03E12, O=C1NC=NC=2NC=C(C=3N=NN(C3)CCCOc4cc(N(C)C)ccc4)C12]",80%
12,"Cc1ccc(-n2cc(-c3c[nH]c4nc[nH]c(=O)c34)nn2)cc1Cl [Compound 02B03, Clc1c(ccc(N2N=NC(C=3C=4C(=O)NC=NC4NC3)=C2)c1)C]",0.61%
13,"O=c1[nH]cnc2[nH]cc(-c3cn(-c4cccc(F)c4)nn3)c12 [Compound 04H04, Fc1cc(N2N=NC(C=3C=4C(=O)NC=NC4NC3)=C2)ccc1]",16%
14,"N[C@]12CC[C@](n3cc(-c4c[nH]c5nc[nH]c(=O)c45)nn3)(CC1)C2 [Compound 02D10, O=C1NC=NC=2NC=C(C=3N=NN(C3)[C@]45C[C@]([NH3+])(CC4)CC5)C12]",11%
15,"O=c1[nH]cnc2[nH]cc(-c3cn(CCCCF)nn3)c12 [Compound 01B09, FCCCCN1N=NC(C=2C=3C(=O)NC=NC3NC2)=C1]",19%
16,"O=c1[nH]cnc2[nH]cc(-c3cn(CCCO)nn3)c12 [Compound 01G05, O=C1NC=NC=2NC=C(C=3N=NN(C3)CCCO)C12]",32%
17,"Cc1c[nH]nc1Cn1cc(-c2c[nH]c3nc[nH]c(=O)c23)nn1 [Compound 04G01, O=C1NC=NC=2NC=C(C=3N=NN(C3)CC4=NNC=C4C)C12]",87%
18,"COC(=O)c1cncc(-n2cc(-c3c[nH]c4nc[nH]c(=O)c34)nn2)c1 [Compound 02F05, O=C(OC)c1cncc(N2N=NC(C=3C=4C(=O)NC=NC4NC3)=C2)c1]",11%

row,Compound,inhibition at 1 µM
1,"C[C@H](c1ccccc1F)n1cc(-c2c[nH]c3nc[nH]c(=O)c23)nn1 [Compound 01E02, Fc1c(cccc1)[C@H](N2N=NC(C=3C=4C(=O)NC=NC4NC3)=C2)C]",50%
2,"C[C@@H]1CNC[C@H]1n1cc(-c2c[nH]c3nc[nH]c(=O)c23)nn1 [Compound 03B12, O=C1NC=NC=2NC=C(C=3N=NN(C3)[C@H]4[C@@H](C[NH2+]C4)C)C12]",19%
3,"O=c1[nH]cnc2[nH]cc(-c3cn(CCCN4CCC(C(F)(F)F)CC4)nn3)c12 [Compound 02D01, FC(F)(F)[C@@H]1CC[N@H+](CC1)CCCN2N=NC(C=3C=4C(=O)NC=NC4NC3)=C2]",23%
4,"O=c1[nH]cnc2[nH]cc(-c3cn(Cc4cnn(-c5ccccc5)c4)nn3)c12 [Compound 01A02, O=C1NC=NC=2NC=C(C=3N=NN(C3)CC=4C=NN(c5ccccc5)C4)C12]",81%
5,"O=C(NCCn1cc(-c2c[nH]c3nc[nH]c(=O)c23)nn1)C(F)(F)F [Compound 02F11, FC(F)(F)C(=O)NCCN1N=NC(C=2C=3C(=O)NC=NC3NC2)=C1]",41%
6,"NC1(c2noc(Cn3cc(-c4c[nH]c5nc[nH]c(=O)c45)nn3)n2)CCCCCC1 [Compound 02E06, O=C1NC=NC=2NC=C(C=3N=NN(C3)CC=4ON=C(N4)C5([NH3+])CCCCCC5)C12]",24%
7,"CCC1(Cn2cc(-c3c[nH]c4nc[nH]c(=O)c34)nn2)COC1 [Compound 03F08, O=C1NC=NC=2NC=C(C=3N=NN(C3)CC4(COC4)CC)C12]",76%
8,"O=c1[nH]cnc2[nH]cc(-c3cn(CCCCCO)nn3)c12 [Compound 02B01, O=C1NC=NC=2NC=C(C=3N=NN(C3)CCCCCO)C12]",27%
9,"O=c1[nH]cnc2[nH]cc(-c3cn(Cc4cccnn4)nn3)c12 [Compound 01A03, O=C1NC=NC=2NC=C(C=3N=NN(C3)Cc4nnccc4)C12]",65%
10,"O=c1[nH]cnc2[nH]cc(-c3cn(Cc4cc(-c5ccco5)on4)nn3)c12 [Compound 03B03, O=C1NC=NC=2NC=C(C=3N=NN(C3)CC4=NOC(C=5OC=CC5)=C4)C12]",49%
11,"O=c1[nH]cnc2[nH]cc(-c3cn([C@@H]4CCc5cc(Cl)ccc54)nn3)c12 [Compound 01C03, Clc1cc2c(cc1)[C@H](N3N=NC(C=4C=5C(=O)NC=NC5NC4)=C3)CC2]",72%
12,"O=c1[nH]cnc2[nH]cc(-c3cn(C[C@@H]4CC(F)(F)CO4)nn3)c12 [Compound 01A11, F[C@]1(F)CO[C@H](CN2N=NC(C=3C=4C(=O)NC=NC4NC3)=C2)C1]",44%
13,"C[C@@H](O)Cn1cc(-c2c[nH]c3nc[nH]c(=O)c23)nn1 [Compound 04A01, O=C1NC=NC=2NC=C(C=3N=NN(C3)C[C@H](O)C)C12]",15%
14,"COC(=O)Cn1cc(-c2c[nH]c3nc[nH]c(=O)c23)nn1 [Compound 01E05, O=C(OC)CN1N=NC(C=2C=3C(=O)NC=NC3NC2)=C1]",11%
15,"NC(=O)[C@@H](c1ccc(F)cc1)n1cc(-c2c[nH]c3nc[nH]c(=O)c23)nn1 [Compound 03B07, Fc1ccc(cc1)[C@@H](N2N=NC(C=3C=4C(=O)NC=NC4NC3)=C2)C(=O)N]",16%
16,"CN(C)CCn1cc(-c2c[nH]c3nc[nH]c(=O)c23)nn1 [Compound 03A02, O=C1NC=NC=2NC=C(C=3N=NN(C3)CC[NH+](C)C)C12]",44%
17,"O=c1[nH]cnc2[nH]cc(-c3cn(C[C@@H]4CCCC4(F)F)nn3)c12 [Compound 01F12, F[C@@]1(F)[C@H](CN2N=NC(C=3C=4C(=O)NC=NC4NC3)=C2)CCC1]",79%

# From publication PMC12751012, “Nanoscale Direct-to-Biology Optimization and Structural Insights into Selective S. aureus TrmD Inhibitors” (Journal of Medicinal Chemistry, 2025)
